The record followed here is ChEMBL document CHEMBL2203136, “Synthesis, characterization, biological evaluation and QSAR studies of 11-p-substituted phenyl-12-phenyl-11a,12-dihydro-11H-indeno[2,1-c][1,5]benzothiazepines as potential antimicrobial agents” (Eur J Med Chem, 2012).

Each structure is given as a SMILES string. Values after ≈ are worked out from the molar mass of the structure shown. Active and inactive are the calls of the source. The rule behind the calls is not given here.

For data set [1], the system named is Pseudomonas aeruginosa. The data set is described as follows: Antibacterial activity against Pseudomonas aeruginosa MTCC 7952 after 24 hrs by serial dilution method. The data set is classed as functional. The settings on record: for MIC: Pseudomonas aeruginosa, MTCC 7952, 24 h.
In data set [2] the test system is Candida albicans. The experiment in a line: Antifungal activity against Candida albicans MTCC 183 after 72 hrs by serial dilution method. The format is functional. The settings on record: for MIC: Candida albicans, MTCC 183, 72 h.
Data set [3] relates to Candida albicans. The data set is described as follows: Antifungal activity against Candida albicans MTCC 183 after 72 hrs by serial dilution method relative to 11,12-Diphenyl-11a,12-dihydro-11H-indeno[2,1-c][1,5]benzothiazepine. The data set is classed as functional.
In data set [4] the test system is Aspergillus fumigatus. The data set is described as follows: Antifungal activity against Aspergillus fumigatus MTCC 2550 after 72 hrs by serial dilution method. The data set is classed as functional. The settings on record: for MIC: Aspergillus fumigatus, MTCC 2550, 72 h.
Data set [5] deals with Staphylococcus aureus. The data set is described as follows: Antibacterial activity against Staphylococcus aureus MTCC 7443 after 24 hrs by serial dilution method relative to 11,12-Diphenyl-11a,12-dihydro-11H-indeno[2,1-c][1,5]benzothiazepine. The data set is classed as functional.
The test system of data set [6] is Bacillus subtilis. The experiment in a line: Antibacterial activity against Bacillus subtilis MTCC 441 after 24 hrs by serial dilution method relative to 11,12-Diphenyl-11a,12-dihydro-11H-indeno[2,1-c][1,5]benzothiazepine. The data set is classed as functional.
Data set [7] has as its system Bacillus subtilis. The experiment in a line: microbe, parasite or virus in culture. The settings on record: MTCC 441, 24 h.
Data set [8] relates to Aspergillus fumigatus. The experiment in a line: Antifungal activity against Aspergillus fumigatus MTCC 2550 after 72 hrs by serial dilution method relative to 11,12-Diphenyl-11a,12-dihydro-11H-indeno[2,1-c][1,5]benzothiazepine. The format is functional.
The test system of data set [9] is Staphylococcus aureus. The experiment in a line: Antibacterial activity against Staphylococcus aureus MTCC 7443 after 24 hrs by serial dilution method. The data set is classed as functional. Conditions: for MIC: Staphylococcus aureus, MTCC 7443, 24 h.
Data set [10] can be described thus: Octanol-water partition coefficient, log P of the compound. The format is physicochemical.
Data set [11] has as its system Bacillus subtilis.
For data set [12], the system named is Escherichia coli. The experiment in a line: Antibacterial activity against Escherichia coli MTCC 42 after 24 hrs by serial dilution method. The format is functional. Conditions: for MIC: Escherichia coli, MTCC 42, 24 h.
Data set [13] relates to Pseudomonas aeruginosa. The experiment in a line: Antibacterial activity against Pseudomonas aeruginosa MTCC 7952 after 24 hrs by serial dilution method relative to 11,12-Diphenyl-11a,12-dihydro-11H-indeno[2,1-c][1,5]benzothiazepine. The format is functional.
Data set [14] deals with Escherichia coli. The data set is described as follows: Antibacterial activity against Escherichia coli MTCC 42 after 24 hrs by serial dilution method relative to 11,12-Diphenyl-11a,12-dihydro-11H-indeno[2,1-c][1,5]benzothiazepine. The format is functional.

For `COc1ccc2c(c1)SC(c1ccc(C)cc1)C1C(=N2)c2ccccc2C1c1ccccc1` (stereo unspecified), the “-logMIC” value in data set [1] turned out to be 2.16; in data set [2] it was 1.55; in data set [4] it was 1.25; in data set [9], 1.86; in data set [11], 0.95; in data set [12] it was 1.55. The MIC in data set [1] turned out to be 6.9 µM (≈ 3.09 µg/mL); in [2], 27.9 µM (≈ 12.5 µg/mL); in data set [4], 55.8 µM (≈ 25 µg/mL); in data set [7], 112 µM (≈ 50 µg/mL); in data set [9], 13.9 µM (≈ 6.22 µg/mL); in [12] it was 27.9 µM (≈ 12.5 µg/mL). In addition, the Activity in [3] is given as 54.92%; in data set [5], 77.54%; in data set [6], -80.45%; in data set [8], 54.96%; in data set [13], 88.85%; in [14], 77.48%. Also, the logP in data set [10] was 7.18.
Turning to `COc1ccc(C2Sc3ccccc3N=C3c4ccccc4C(c4ccccc4)C32)cc1` (stereo unspecified), the result in [1] and in data set [9] was inactive. Moreover, the “-logMIC” value in data set [2] is 0.94; in data set [4], 1.24; in [11], 0.94; in [12] it was 0.94. Moreover, the MIC in [2] was found to be 115 µM (≈ 50 µg/mL); in data set [4], 57.6 µM (≈ 25 µg/mL); in data set [7], 115 µM (≈ 50 µg/mL); in [12] it was 115 µM (≈ 50 µg/mL). Besides, the Activity is -86.26% in data set [3], -86.26% in data set [6], 53.51% in data set [8] and 6.94% in data set [14]. The compound also showed a logP in [10] of 7.95.
With `COc1ccc(C2Sc3cc(C)ccc3N=C3c4ccccc4C(c4ccccc4)C32)cc1` (stereo unspecified), the “-logMIC” value stood at 1.25 in [1]; 0.95 in data set [2]; 0.95 in data set [4]; 1.55 in data set [9]; 1.25 in data set [11]; 0.95 in [12]. The MIC in [1] is 55.8 µM (≈ 25 µg/mL); in [2], 112 µM (≈ 50 µg/mL); in data set [4] it was 112 µM (≈ 50 µg/mL); in data set [7], 55.8 µM (≈ 25 µg/mL); in [9] it was 27.9 µM (≈ 12.5 µg/mL); in data set [12], 112 µM (≈ 50 µg/mL). Moreover, the Activity is reported as -80.45% in data set [3]; 54.92% in data set [5]; 9.85% in data set [6]; 9.84% in [8]; 9.85% in data set [13]; 9.84% in data set [14]. The same compound came in with a logP in data set [10] of 7.18.
As for `Cc1ccc2c(c1)SC(c1ccc(Cl)cc1)C1C(=N2)c2ccccc2C1c1ccccc1` (stereo unspecified), the “-logMIC” value was determined as 1.56 in data set [1]; 1.26 in [2]; 1.26 in [4]; 0.96 in [11]; 1.56 in data set [12]. Further, the MIC stood at 27.6 µM (≈ 12.5 µg/mL) in data set [1]; 55.3 µM (≈ 25 µg/mL) in [2]; 55.3 µM (≈ 25 µg/mL) in [4]; 111 µM (≈ 50 µg/mL) in data set [7]; 27.6 µM (≈ 12.5 µg/mL) in data set [12]. In addition, the Activity in [3] is on record as 10.66%; in data set [6] it was -78.67%; in data set [8] it was 55.36%; in data set [13], 55.41%; in data set [14], 77.72%. In addition, the result in [9] was inactive. Moreover, the lipophilicity (logP) in data set [10] was 7.95.
Consider `Cc1ccc(C2Sc3cc(Cl)ccc3N=C3c4ccccc4C(c4ccccc4)C32)cc1` (stereo unspecified), for which the “-logMIC” value in data set [1] came out at 1.56; in [2], 1.56; in [4], 1.56; in [9] it was 2.16; in data set [11], 1.56; in data set [12] it was 1.86. Besides, the MIC in data set [1] came to 27.6 µM (≈ 12.5 µg/mL); in data set [2], 27.6 µM (≈ 12.5 µg/mL); in [4] it was 27.6 µM (≈ 12.5 µg/mL); in data set [7], 27.6 µM (≈ 12.5 µg/mL); in [9] it was 6.9 µM (≈ 3.12 µg/mL); in data set [12] it was 13.8 µM (≈ 6.24 µg/mL). Besides, the Activity in [3] stood at 55.41%; in [5] it was 88.85%; in data set [6], 55.41%; in data set [8] it was 77.72%; in data set [13] it was 55.41%; in data set [14], 88.86%. This compound also showed a log partition coefficient (logP) in [10] of 7.95.
On to `CN[C@@H]1[C@H](O[C@H]2[C@H](O[C@H]3[C@H](O)[C@@H](O)[C@H](N=C(N)N)[C@@H](O)[C@@H]3N=C(N)N)O[C@@H](C)[C@]2(O)C=O)O[C@@H](CO)[C@H](O)[C@H]1O` [STREPTOMYCIN], for which the MIC was found to be 2.6 µM (≈ 1.51 µg/mL) in [1], 10.7 µM (≈ 6.22 µg/mL) in data set [7], 10.7 µM (≈ 6.22 µg/mL) in [9] and 5.3 µM (≈ 3.08 µg/mL) in [12].
As to `CC1(C)S[C@@H]2[C@H](NC(=O)Cc3ccccc3)C(=O)N2[C@H]1C(=O)O` [PENICILLIN G], the MIC turned out to be 18.7 µM (≈ 6.25 µg/mL) in data set [1], 4.6 µM (≈ 1.54 µg/mL) in data set [7], 4.6 µM (≈ 1.54 µg/mL) in data set [9] and 37.4 µM (≈ 12.5 µg/mL) in [12].
For `Cc1ccc2c(c1)SC(c1ccccc1)C1C(=N2)c2ccccc2C1c1ccccc1` (stereo unspecified), the “-logMIC” value came out at 1.52 in data set [1]; 1.22 in [2]; 1.22 in data set [4]; 0.92 in data set [9]; 0.92 in [11]. Further, the MIC turned out to be 29.9 µM (≈ 12.5 µg/mL) in data set [1]; 59.8 µM (≈ 25 µg/mL) in data set [2]; 59.8 µM (≈ 25 µg/mL) in [4]; 120 µM (≈ 50 µg/mL) in [7]; 120 µM (≈ 50 µg/mL) in data set [9]. Besides, the Activity in data set [3] is reported as 3.39%; in data set [5] it was -93.37%; in data set [6], -93.37%; in data set [8], 51.73%; in [13], 51.69%. Moreover, the logP in [10] stood at 7.43.
For the compound `OC(Cn1cncn1)(Cn1cncn1)c1ccc(F)cc1F` [FLUCONAZOLE], the MIC in data set [2] and in [4] was 10.1 µM (≈ 3.09 µg/mL) each time.
With `Cc1ccc(C2Sc3ccccc3N=C3c4ccccc4C(c4ccccc4)C32)cc1` (stereo unspecified), the outcome in data set [1], in data set [2] and in data set [4] was inactive. Further, the Activity is reported as -93.37% in [5], 3.39% in [6] and 3.38% in data set [14]. Moreover, the MIC was 59.8 µM (≈ 25 µg/mL) in [7], 120 µM (≈ 50 µg/mL) in data set [9] and 120 µM (≈ 50 µg/mL) in [12]. The “-logMIC” value came to 0.92 in [9], 1.22 in [11] and 0.92 in [12]. In addition, the log partition coefficient (logP) in data set [10] came out at 7.43.
As to `c1ccc(C2Sc3ccccc3N=C3c4ccccc4C(c4ccccc4)C32)cc1` (stereo unspecified), the “-logMIC” value was 1.21 in [1]; 1.21 in [2]; 0.91 in data set [4]; 1.21 in data set [9]; 1.21 in [11]; 0.91 in data set [12]. Also, the MIC in data set [1] is 61.9 µM (≈ 25 µg/mL); in data set [2], 61.9 µM (≈ 25 µg/mL); in data set [4], 124 µM (≈ 50 µg/mL); in data set [7], 61.9 µM (≈ 25 µg/mL); in data set [9] it was 61.9 µM (≈ 25 µg/mL); in data set [12] it was 124 µM (≈ 50 µg/mL). In [10], the logP is 6.96.
